Results: patent US9981972B2, “N-hydroxy bicyclic hydantoin carbamates as tools for identification of serine hydrolase targets” (ABIDE THERAPEUTICS, INC., priority 2014, dated 2018)

System: SH anti-targets in HeLa cells
Assay: Gel-based competitive ABPP in situ, cultured HeLa cells, anti-targets
Type: cell-based, human
Settings: 2 h, any compound concentration, ABHD6 not visible
Method: Assay Overview: The purpose of this assay was to determine IC50 values of powder samples of test compounds for enzyme of interest activity in situ using a gel-based competitive ABPP assay. In this assay, cultured cells were treated with test compound, harvested, and lysed. The isolated soluble proteome fraction was reacted with FP-Rh and analyzed by SDS-PAGE as described above.
Protocol Summary: To cultured HeLa cells (90% confluent) was added fresh DMEM (5 mL total volume; supplemented with 10% FCS) pre-mixed with DMSO or test compound. After 2 hours at 37° C., cells were harvested by scraping, washed twice with 10 mL DPBS, and homogenized by sonication in DPBS. The soluble fraction was isolated by centrifugation (100K×g, 45 minutes) and the protein concentration was adjusted to 1 mg/mL with DPBS. FP-Rh (1 μL of 50× stock in DMSO) was added to a final concentration of 2 μM in 50 μL total reaction volume. […] The percentage activity remaining was determined by measuring the integrated optical density of the enzymes of interest, and anti-target bands relative to a DMSO-only (no compound) control. […]
Compound 1 is active in situ against the LYPLA enzymes (see FIG. 3A) as assessed by gel-based competitive ABPP with FP-Rh following two hours of compound treatment of HeLa cells cultured in serum-supplemented medium.

## O=C(ON1C(=O)C2CN(C(=O)N3CCOCC3)CCN2C1=O)N1CCC(CCc2ccc(Cl)cc2)CC1 (stereo not shown) [Compound 1, 7-(morpholine-4-carbonyl)-1,3-dioxohexahydroimidazo[1,5-a]pyrazin-2(3H)-yl 4-(4-chloro-phenethyl)piperidine-1-carboxylate]
  anti-target inhibition in situ: No anti-target inhibition
